Data reported in US20230240297A1, “SELECTIVE HERBICIDES BASED ON SUBSTITUTED ISOXAZOLIN CARBOXAMIDES AND CYPROSULFAMIDE” (Bayer Aktiengesellschaft, priority 2020, published 2023).

Columns and labels:
ZEAMA Sileno [1] = experiment: Tank-mix; post-emergence, crop damage with and without safener; assay type: in vivo, maize; settings: for HER effect + SAF / HER effect: Final assessment; for HER effect: no safener
Description: Seeds of crops (spring wheat, TRZAS; spring barley, HORVS; maize, ZEAMA) were placed in sandy loam soil in peat pots, covered with soil and cultivated in a greenhouse under good growth conditions. Two to three weeks after sowing, the test plants were treated at the 1 to 3-leaf stage. The herbicide/safener active compound combinations according to the invention, formulated as wettable powders or emulsion concentrates, and, in parallel tests, the correspondingly formulated individual active compounds were sprayed onto the green parts of the plants in various dosages using an amount of water of 300 1/ha (converted).
The pots were returned under good growing conditions in a glasshouse and a visual assessment of herbicidal effects was made at intervals from 1 to 3 weeks after herbicide application (DAT = days after treatment). Assessment was on a percentage basis in comparison with untreated control plants (0% = no injury, 100% = complete kill).

ZEAMA Sileno [2] = experiment: Seed treatment with safener; post-emergence herbicide application; assay type: in vivo, maize; parameters: Reduction [Difference]: scale not given here; settings: Final assessment; for Reduction [%] / Reduction [Difference]: Cyprosulfamide 0.5 g a.i./kg seed; for Reduction [Difference]: damage without safener - damage with safener; for HER effect + SAF (crop damage with safener): Cyprosulfamide seed treatment 0.5 g a.i./kg seed; for HER effect (crop damage, herbicide without safener): no safener
Description: For the safener seed treatment, sufficient seeds of the respective crops (spring wheat, TRZAS; spring barley, HORVS; maize, ZEAMA) were weighed into screw top glass bottles approximately twice the volume of the seeds.
The specified safeners, formulated as wettable powder (WP) were weighed out so that the specified rates (g a.i./kg seed) would be obtained, dissolved in water (1 ml water per 10 g of seeds), and added to the seeds to produce a slurry.
The bottles were capped and then placed in an overhead shaker (set at medium speed for ca. 60 minutes) so that the seeds were evenly coated with the slurry. The bottles were uncapped and the seeds were either placed on paper and dried for an interval of 3-4 hours prior to sowing, or directly sown. Seeds were placed in sandy loam soil in pots of a diameter of 7-8 cm, covered with soil, and cultivated in a greenhouse under good growth conditions.
Post-emergence application of the specified herbicides was done when the plants had reached growth stage BBCH11-13, on two sets of plants:
a) seed treatment with safener, as described above b) no safener treatment
The herbicides were formulated as WP and sprayed onto the green parts of the plants as an aqueous suspension at an equivalent water application rate of 300 1/ha, with addition of wetting agent and adjuvants (e.g. Mero, 1.5 1/ha; ammonium sulphate, 2 kg/ha)
After application, the test plants were kept in the greenhouse under good growth conditions.
Values in the table below are mean values of at least 2 replicates.

[3] = HER 8 g a.i./ha, cyprosulfamide 50 g a.i./ha
[4] = HER 32 g a.i./ha, cyprosulfamide 100 g a.i./ha
[5] = HER dose 8 g a.i./ha + cyprosulfamide 50 g a.i./ha tank-mix
[6] = HER dose 32 g a.i./ha + cyprosulfamide 100 g a.i./ha tank-mix

Compound	Reduction [%] (ZEAMA Sileno [1]; [3])	Reduction [Difference] (ZEAMA Sileno [1]; [3])	Reduction [%] (ZEAMA Sileno [1]; [4])	Reduction [Difference] (ZEAMA Sileno [1]; [4])	HER effect + SAF (ZEAMA Sileno [1]; [5])	HER effect (ZEAMA Sileno [1]; HER dose 8 g a.i./ha)	HER effect + SAF (ZEAMA Sileno [1]; [6])	HER effect (ZEAMA Sileno [1]; HER dose 32 g a.i./ha)	Reduction [%] (ZEAMA Sileno [2]; HER dose 8 g a.i./ha)	Reduction [Difference] (ZEAMA Sileno [2]; HER dose 8 g a.i./ha)	HER effect + SAF (crop damage with safener) (ZEAMA Sileno [2]; HER dose 8 g a.i./ha)	HER effect (crop damage, herbicide without safener) (ZEAMA Sileno [2]; HER dose 8 g a.i./ha)	Reduction [%] (ZEAMA Sileno [2]; HER dose 32 g a.i./ha)	Reduction [Difference] (ZEAMA Sileno [2]; HER dose 32 g a.i./ha)	HER effect + SAF (crop damage with safener) (ZEAMA Sileno [2]; HER dose 32 g a.i./ha)	HER effect (crop damage, herbicide without safener) (ZEAMA Sileno [2]; HER dose 32 g a.i./ha)	also measured
COC(=O)C1(C)CC(NC(=O)C2(C(C)(F)F)CC(c3cc(F)cc(F)c3)=NO2)CO1 (mixture of isomers) [Example 1.94]	89%	81	76%	71	10%	91%	23%	94%	100%	91	0%	91%	93%	87	7%	94%	–
C=CC1(C(=O)NC2COC(C(=O)OC)C2)CC(c2cc(F)cc(F)c2)=NO1 (stereo not drawn) [Example 1.69]	76%	70	73%	68	22%	92%	25%	93%	82%	75	17%	92%	75%	70	23%	93%	–
COC(=O)C1C=CC(NC(=O)C2(C(F)(F)F)CC(c3cccc(F)c3)=NO2)C1 (stereo not drawn) [Example 1.18]	66%	62	72%	70	32%	94%	27%	97%	89%	84	10%	94%	79%	77	20%	97%	–
COC(=O)C1C=CC(NC(=O)C2(C)CC(c3cc(Cl)cc(C#N)c3)=NO2)C1 (mixture of isomers) [Example 1.23]	60%	30	67%	47	20%	50%	23%	70%	100%	50	0%	50%	96%	67	3%	70%	–
COCCOC(=O)C1C=CC(NC(=O)C2(C(F)(F)F)CC(c3cc(F)cc(C#N)c3)=NO2)C1 (stereo not drawn) [Example 1.2]	44%	40	48%	46	50%	90%	50%	96%	89%	80	10%	90%	81%	78	18%	96%	–
C=CC1(C(=O)NC2COC(C(=O)OC)C2)CC(c2cc(F)cc(F)c2)=NO1 (stereo not drawn) [Example 1.70]	21%	20	41%	40	77%	97%	58%	98%	77%	75	22%	97%	67%	66	32%	98%	Reduction [%] (ZEAMA Sileno [1]; HER 2 g a.i./ha, cyprosulfamide 50 g a.i./ha): 77%; Reduction [Difference] (ZEAMA Sileno [1]; HER 2 g a.i./ha, cyprosulfamide 50 g a.i./ha, damage without safener - damage with safener): 68; HER effect + SAF (ZEAMA Sileno [1]; HER dose 2 g a.i./ha + cyprosulfamide 50 g a.i./ha tank-mix): 20%; HER effect (ZEAMA Sileno [1]; HER dose 2 g a.i./ha, 0% = no injury, 100% = complete kill): 88%; Reduction [%] (ZEAMA Sileno [2]; HER dose 2 g a.i./ha): 80%; Reduction [Difference] (ZEAMA Sileno [2]; HER dose 2 g a.i./ha): 70; HER effect + SAF (crop damage with safener) (ZEAMA Sileno [2]; HER dose 2 g a.i./ha): 18%; HER effect (crop damage, herbicide without safener) (ZEAMA Sileno [2]; HER dose 2 g a.i./ha): 88%
C=CCOC(=O)C1CC(NC(=O)C2(C)CC(c3cc(F)cc(F)c3)=NO2)CO1 (mixture of isomers) [Example 1.75]	62%	45	66%	58	28%	73%	30%	88%	100%	73	0%	73%	89%	78	10%	88%	–
